Test results from patent US20110172147A1, “NEUROPEPTIDE-2 RECEPTOR (Y-2R) AGONISTS” (priority 2009, published 2011).

Columns and labels:
Type in all cases: cell-based
hNPY2R [1] = biological target: T1, hNPY2R (Homo sapiens, UniProt P49146); assay: cAMP Agonist Assay, HEK293/hNPY2R; set-up: expressed in transfected cells; host or cells: HEK293/hNPY2R (G418 selection)
T1 sequence (P49146 1-381): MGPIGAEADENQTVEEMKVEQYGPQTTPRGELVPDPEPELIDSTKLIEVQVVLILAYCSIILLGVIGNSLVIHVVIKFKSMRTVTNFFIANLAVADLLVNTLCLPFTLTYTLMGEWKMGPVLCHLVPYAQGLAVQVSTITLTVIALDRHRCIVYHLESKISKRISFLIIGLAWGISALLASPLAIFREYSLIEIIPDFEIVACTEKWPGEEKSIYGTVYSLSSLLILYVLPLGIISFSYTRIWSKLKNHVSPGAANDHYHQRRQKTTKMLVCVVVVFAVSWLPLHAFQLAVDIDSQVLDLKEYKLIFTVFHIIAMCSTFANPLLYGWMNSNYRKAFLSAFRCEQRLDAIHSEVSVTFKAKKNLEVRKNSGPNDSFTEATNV
Outline: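 Intracellular cAMP quantified by luminescent competitive ELISA after a 30 min room-temperature treatment of overnight-plated HEK293/hNPY2R cells with compound in medium containing 5 μM forskolin, 0.5 mM IBMX and 1.1% DMSO; four replicates per concentration.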

Y1R = biological target: T2, Y1R (Homo sapiens, UniProt P25929); assay: CaFlux Assay (FLIPR), Y1R
T2 sequence (P25929 1-384): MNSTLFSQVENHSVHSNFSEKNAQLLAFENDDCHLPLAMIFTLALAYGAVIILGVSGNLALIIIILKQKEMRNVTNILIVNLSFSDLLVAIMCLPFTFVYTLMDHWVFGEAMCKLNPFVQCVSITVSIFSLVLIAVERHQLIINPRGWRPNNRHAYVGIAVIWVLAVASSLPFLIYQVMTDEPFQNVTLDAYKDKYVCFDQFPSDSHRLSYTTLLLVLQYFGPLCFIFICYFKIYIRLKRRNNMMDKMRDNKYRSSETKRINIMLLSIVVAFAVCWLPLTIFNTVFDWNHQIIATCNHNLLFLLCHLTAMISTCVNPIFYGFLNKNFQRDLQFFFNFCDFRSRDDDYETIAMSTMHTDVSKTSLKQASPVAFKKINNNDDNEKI

Y5R = biological target: T3, Y5R (Homo sapiens, UniProt Q15761); assay: CaFlux Assay (FLIPR), Y5R
T3 sequence (Q15761 1-445): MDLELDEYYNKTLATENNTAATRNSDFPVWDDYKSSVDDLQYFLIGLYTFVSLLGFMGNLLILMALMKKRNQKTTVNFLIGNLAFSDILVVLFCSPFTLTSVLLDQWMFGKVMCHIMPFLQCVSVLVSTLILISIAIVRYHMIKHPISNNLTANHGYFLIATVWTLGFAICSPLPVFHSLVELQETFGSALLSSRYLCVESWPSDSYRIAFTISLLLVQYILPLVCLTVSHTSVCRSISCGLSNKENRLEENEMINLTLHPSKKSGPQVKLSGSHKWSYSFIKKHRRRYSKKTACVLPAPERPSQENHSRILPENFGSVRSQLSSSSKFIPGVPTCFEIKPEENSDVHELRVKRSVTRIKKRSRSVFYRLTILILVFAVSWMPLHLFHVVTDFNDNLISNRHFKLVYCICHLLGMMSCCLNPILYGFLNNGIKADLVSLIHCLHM

Y4R = Y4R (Homo sapiens, UniProt P50391); assay: CaFlux Assay (FLIPR), Y4R
hNPY2R [2] = biological target: T1, hNPY2R; assay: CaFlux Assay (FLIPR), Y2R; set-up: expressed in transfected cells; host or cells: HEK-293 stably transfected with G protein chimera Gαqi9
Outline: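 Stable HEK-293/Gαqi9 clones expressing receptor, pre-loaded 1 h at 37 °C with calcium dye containing 5 mM probenecid. Test compound in HBSS with 0.05% BSA and 1% DMSO added on FLIPR; baseline-corrected peak fluorescence taken as % of positive-control maximum.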

Sequence of Y4R (P50391 whole entry): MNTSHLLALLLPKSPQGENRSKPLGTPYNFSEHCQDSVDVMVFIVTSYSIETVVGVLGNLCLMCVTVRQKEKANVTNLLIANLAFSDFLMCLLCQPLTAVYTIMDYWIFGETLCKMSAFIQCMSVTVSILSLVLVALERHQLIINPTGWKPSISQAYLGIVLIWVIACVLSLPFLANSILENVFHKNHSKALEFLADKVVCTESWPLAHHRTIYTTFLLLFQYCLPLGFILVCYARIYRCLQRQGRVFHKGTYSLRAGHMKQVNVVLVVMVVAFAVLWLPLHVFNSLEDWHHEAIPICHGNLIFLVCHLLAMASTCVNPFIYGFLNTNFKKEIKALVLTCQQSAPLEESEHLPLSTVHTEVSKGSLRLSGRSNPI

Row | SMILES | EC50 (hNPY2R [1]) [nM] | EC50 (Y1R) [nM] | EC50 (Y5R) [nM] | EC50 (Y4R) [nM] | EC50 (hNPY2R [2]) [nM] | Y5R FLIPR agonist character (partial agonist mark) (Y5R; FLIPR)
1 | CCCCCCCCCCCCCCCC(=O)NCCCCCC(=O)NCCCCCC(=O)N[C@H](C(=O)N[C@@H](CCCCNC(=O)CCOCCOCCOCCOCCOCCOCCOCCOCCOCCOCCOCCOCCOCCOCCOCCOCCOCCOCCOCCOCCOCCOCCOCCOC)C(=O)N1CCN(c2ccc3ncn(CC(=O)N[C@@H](CCCNC(=N)N)C(=O)N[C@@H](Cc4c[nH]cn4)C(=O)N[C@@H](Cc4ccc(O)cc4)C(=O)N[C@@H](CC(C)C)C(=O)N[C@@H](CC(N)=O)C(=O)N[C@@H](Cc4c[nH]c5ccccc45)C(=O)N[C@H](C(=O)N[C@H](C(=O)N[C@@H](CCCNC(=N)N)C(=O)N[C@@H](CCC(N)=O)C(=O)N(C)[C@@H](CCCNC(=N)N)C(=O)N[C@@H](Cc4ccc(O)cc4)C(N)=O)[C@@H](C)O)C(C)C)c(=O)c3c2)CC1)[C@@H](C)CC [Example 42] | 0.13 | > 6000 | 815 | > 6000 | 0.069 | 
2 | CCCCCCCCCCCCCCCC(=O)NCCCCCC(=O)NCCCCCC(=O)N[C@@H](C(=O)N[C@@H](CCCCNC(=O)CCOCCOCCOCCOCCOCCOCCOCCOCCOCCOCCOCCOCCOCCOCCOCCOCCOCCOCCOCCOCCOCCOCCOCCOC)C(=O)N1CCN(c2ccc3ncn(CC(=O)N[C@@H](CCCNC(=N)N)C(=O)N[C@@H](Cc4c[nH]cn4)C(=O)N[C@@H](Cc4ccc(O)cc4)C(=O)N[C@@H](CC(C)C)C(=O)N[C@@H](CC(N)=O)C(=O)N[C@@H](Cc4c[nH]c5ccccc45)C(=O)N[C@H](C(=O)N[C@H](C(=O)N[C@@H](CCCNC(=N)N)C(=O)N[C@@H](CCC(N)=O)C(=O)N(C)[C@@H](CCCNC(=N)N)C(=O)N[C@@H](Cc4ccc(O)cc4)C(N)=O)[C@@H](C)O)C(C)C)c(=O)c3c2)CC1)[C@@H](C)CC [Example 43] | 0.1 | > 6000 | 316 | > 6000 | 0.1 | 
3 | CCCCCCCCCCCCCCCCCCCC(=O)N[C@@H](CCC(=O)O)C(=O)N[C@@H](CCC(=O)O)C(=O)N[C@H](C(=O)N[C@@H](CCCCNC(=O)CCOCCOCCOCCOCCOCCOCCOCCOC)C(=O)N1CCN(c2ccc3ncn(CC(=O)N[C@@H](CCCNC(N)=O)C(=O)N[C@@H](Cc4c[nH]cn4)C(=O)N[C@@H](Cc4ccc(O)cc4)C(=O)N[C@@H](CC(C)C)C(=O)N[C@@H](CC(N)=O)C(=O)N[C@@H](Cc4c[nH]c5ccccc45)C(=O)N[C@H](C(=O)N[C@H](C(=O)N[C@@H](CCCNC(=N)N)C(=O)N[C@@H](CCC(N)=O)C(=O)N(C)[C@@H](CCCNC(=N)N)C(=O)N[C@@H](Cc4ccc(O)cc4)C(N)=O)[C@@H](C)O)C(C)C)c(=O)c3c2)CC1)[C@@H](C)CC [Example 44] | 0.43 | > 6000 | > 6000 | > 6000 | 0.313 | 
4 | CCCCCCCCCCCCCCCCCCCC(=O)N[C@@H](CCC(=O)O)C(=O)N[C@@H](CCC(=O)O)C(=O)N[C@H](C(=O)N[C@@H](CCCCNC(=O)CCOCCOCCOCCOCCOCCOCCOCCOCCOCCOCCOCCOC)C(=O)N1CCN(c2ccc3ncn(CC(=O)N[C@@H](CCCNC(N)=O)C(=O)N[C@@H](Cc4c[nH]cn4)C(=O)N[C@@H](Cc4ccc(O)cc4)C(=O)N[C@@H](CC(C)C)C(=O)N[C@@H](CC(N)=O)C(=O)N[C@@H](Cc4c[nH]c5ccccc45)C(=O)N[C@H](C(=O)N[C@H](C(=O)N[C@@H](CCCNC(=N)N)C(=O)N[C@@H](CCC(N)=O)C(=O)N(C)[C@@H](CCCNC(=N)N)C(=O)N[C@@H](Cc4ccc(O)cc4)C(N)=O)[C@@H](C)O)C(C)C)c(=O)c3c2)CC1)[C@@H](C)CC [Example 45] | 0.3 | > 6000 | > 6000 | > 6000 | 0.158 | 
5 | CCCCCCCCCCCCCCCCCCCC(=O)N[C@@H](CCC(=O)O)C(=O)N[C@@H](CCC(=O)O)C(=O)N[C@H](C(=O)N[C@@H](CCCCNC(=O)CCOCCOCCOCCOCCOCCOCCOCCOCCOCCOCCOCCOC)C(=O)N1CCN(c2ccc3ncn(CC(=O)N[C@@H](CCCNC(=N)N)C(=O)N[C@@H](Cc4c[nH]cn4)C(=O)N[C@@H](Cc4ccc(O)cc4)C(=O)N[C@@H](CC(C)C)C(=O)N[C@@H](CC(N)=O)C(=O)N[C@@H](Cc4c[nH]c5ccccc45)C(=O)N[C@H](C(=O)N[C@H](C(=O)N[C@@H](CCCNC(=N)N)C(=O)N[C@@H](CCC(N)=O)C(=O)N(C)[C@@H](CCCNC(=N)N)C(=O)N[C@@H](Cc4ccc(O)cc4)C(N)=O)[C@@H](C)O)C(C)C)c(=O)c3c2)CC1)[C@@H](C)CC [Example 46] | 0.29 | > 9000 | 4580 | > 9000 | 0.214 | 
6 | CCCCCCCCCCCCCCCCCCCC(=O)N[C@@H](CCC(=O)O)C(=O)N[C@@H](CCC(=O)O)C(=O)N[C@H](C(=O)N[C@@H](CCCCNC(=O)CCOCCOCCOCCOCCOCCOCCOCCOCCOCCOCCOCCOCCOCCOCCOCCOC)C(=O)N1CCN(c2ccc3ncn(CC(=O)N[C@@H](CCCNC(N)=O)C(=O)N[C@@H](Cc4c[nH]cn4)C(=O)N[C@@H](Cc4ccc(O)cc4)C(=O)N[C@@H](CC(C)C)C(=O)N[C@@H](CC(N)=O)C(=O)N[C@@H](Cc4c[nH]c5ccccc45)C(=O)N[C@H](C(=O)N[C@H](C(=O)N[C@@H](CCCNC(=N)N)C(=O)N[C@@H](CCC(N)=O)C(=O)N(C)[C@@H](CCCNC(=N)N)C(=O)N[C@@H](Cc4ccc(O)cc4)C(N)=O)[C@@H](C)O)C(C)C)c(=O)c3c2)CC1)[C@@H](C)CC [Example 47] | 0.23 | > 6000 | > 6000 | > 6000 | 0.158 | 
7 | CCCCCCCCCCCCCCCCCCCC(=O)N[C@@H](CCC(=O)O)C(=O)N[C@@H](CCC(=O)O)C(=O)N[C@H](C(=O)N[C@@H](CCCCNC(=O)CCOCCOCCOCCOCCOCCOCCOCCOCCOCCOCCOCCOCCOCCOCCOCCOC)C(=O)N1CCN(c2ccc3ncn(CC(=O)N[C@@H](CCCNC(=N)N)C(=O)N[C@@H](Cc4c[nH]cn4)C(=O)N[C@@H](Cc4ccc(O)cc4)C(=O)N[C@@H](CC(C)C)C(=O)N[C@@H](CC(N)=O)C(=O)N[C@@H](Cc4c[nH]c5ccccc45)C(=O)N[C@H](C(=O)N[C@H](C(=O)N[C@@H](CCCNC(=N)N)C(=O)N[C@@H](CCC(N)=O)C(=O)N(C)[C@@H](CCCNC(=N)N)C(=O)N[C@@H](Cc4ccc(O)cc4)C(N)=O)[C@@H](C)O)C(C)C)c(=O)c3c2)CC1)[C@@H](C)CC [Example 48] | 0.52 | > 9000 | 4320 | > 9000 | 0.388 | 
8 | CCCCCCCCCCCCCCCCCCCC(=O)N[C@@H](CCC(=O)O)C(=O)N[C@@H](CCC(=O)O)C(=O)N[C@H](C(=O)N[C@@H](CCCCNC(=O)CCOCCOCCOCCOCCOCCOCCOCCOCCOCCOCCOCCOCCOCCOCCOCCOCCOCCOCCOCCOCCOCCOCCOCCOC)C(=O)N1CCN(c2ccc3ncn(CC(=O)N[C@@H](CCCNC(N)=O)C(=O)N[C@@H](Cc4c[nH]cn4)C(=O)N[C@@H](Cc4ccc(O)cc4)C(=O)N[C@@H](CC(C)C)C(=O)N[C@@H](CC(N)=O)C(=O)N[C@@H](Cc4c[nH]c5ccccc45)C(=O)N[C@H](C(=O)N[C@H](C(=O)N[C@@H](CCCNC(=N)N)C(=O)N[C@@H](CCC(N)=O)C(=O)N(C)[C@@H](CCCNC(=N)N)C(=O)N[C@@H](Cc4ccc(O)cc4)C(N)=O)[C@@H](C)O)C(C)C)c(=O)c3c2)CC1)[C@@H](C)CC [Example 49] | 0.25 | > 9000 | 518 | > 9000 | 0.098 | P.A
